Legend:
[1] = test system: tracheal preparations (guinea pig trachea); test: in vitro tracheal preparations of the guinea pig, relaxation under isoproterenol
[2] = test system: β-adrenoceptor (guinea pig atrium); test: spontaneously beating guinea pig atrium test: inhibition of the positive chronotropic isoprenaline effect; settings: β-adrenoceptor blocking activity, vs isoprenaline
[3] = at concentrations as high as 1×10^-4 M

| SMILES | effect in the trachea ([1]; at concentrations as high as 2×10^-5 M) | Guinea pig atrium test Effective dose (molar concentration) [2] | effect in the trachea [1, 3] |
| --- | --- | --- | --- |
| COCCc1ccc(OCC(O)CNCCNC(=O)C2CCCOC2)cc1 (centres unmarked) [Example 1, 1-[4-(2-Methoxyethyl)phenoxy]-3-[2-(tetrahydropyran-3-ylcarbonylamino)ethylamino]-2-propanol] | no effect | – | – |
| COCCc1ccc(OCC(O)CNCCNC(=O)C2CCOCC2)cc1 (centres unmarked) [Example 3] | – | 200 nM | – |
| COCCOc1ccc(OCC(O)CNCCNC(=O)C2CCOCC2)cc1 (centres unmarked) [Example 6] | – | 400 nM | no effect |
| COCCc1ccc(OCC(O)CNCCNC(=O)C2CCOCC2)c(C#N)c1 (centres unmarked) [Example 7] | – | 80 nM | – |
| COCCc1ccc(OCC(O)CNCCNC(=O)C2CCCOC2)c(Br)c1 (centres unmarked) [Example 8] | – | 80 nM | – |
| COCCc1ccc(OCC(O)CNCCNC(=O)C2CCCOC2)c(C#N)c1 (centres unmarked) [Example 9] | – | 300 nM | – |
| O=C(NCCNCC(O)COc1ccc(OCCOCC2CC2)cc1)C1CCCOC1 (centres unmarked) [Example 10] | – | – | no effect |
| O=C(NCCNCC(O)COc1ccc(OCCOCC2CC2)cc1)C1CCOCC1 (centres unmarked) [Example 11] | – | 200 nM | no effect |
| O=C(NCCCNCC(O)COc1ccc(OCCOCC2CC2)cc1)C1CCOCC1 (centres unmarked) [Example 12] | – | 3000 nM | – |
